Results as given in the supplement of paper PMC10307832.

What was measured:
Assay in all cases: relative viability (nuclei count vs DMSO), 5 days (fraction); higher = more cells survive
ALW-II-49-7 + Lapatinib = compound: Cc1ccc(C(=O)Nc2cccc(C(F)(F)F)c2)cc1Nc1cncc(C(N)=O)c1 [ALW-II-49-7] + CS(=O)(=O)CCNCc1ccc(-c2ccc3ncnc(Nc4ccc(OCc5cccc(F)c5)c(Cl)c4)c3c2)o1 [Lapatinib] (partner 2 µM)
In short: (§1)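 Nuclei were stained with Hoechst during a one-step fixation (final 0.05% Triton X-100, 1% formaldehyde, 1 ug/ml Hoechst) carried out 5 days after dosing, then counted on 4× images. The cells, lung cancer lines in 1536-well plates, had been dosed by pin tool the day after seeding with one drug alone or a fixed anchor-drug dose plus five library-drug doses (not always all listed) in √10 steps. Relative viability is the nuclei count in treated wells divided by that in vehicle wells, and each value is the median of duplicate plates.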

Dasatinib + Crizotinib = compound: Cc1nc(Nc2ncc(C(=O)Nc3c(C)cccc3Cl)s2)cc(N2CCN(CCO)CC2)n1 [Dasatinib] + C[C@@H](Oc1cc(-c2cnn(C3CCNCC3)c2)cnc1N)c1c(Cl)ccc(F)c1Cl [Crizotinib] (partner 1 µM)
In short: as §1

Dasatinib + Trametinib = compound: Cc1nc(Nc2ncc(C(=O)Nc3c(C)cccc3Cl)s2)cc(N2CCN(CCO)CC2)n1 [Dasatinib] + CC(=O)Nc1cccc(-n2c(=O)n(C3CC3)c(=O)c3c(Nc4ccc(I)cc4F)n(C)c(=O)c(C)c32)c1 [Trametinib] (partner 0.02 µM)
In short: as §1

XMD13-2 + Trametinib = compound: C1CC1C(=O)NC2=NNC3=C2C=CC(=C3)C4=CC(=CC=C4)C(=O)NC5CC5 [XMD13-2] + CC(=O)Nc1cccc(-n2c(=O)n(C3CC3)c(=O)c3c(Nc4ccc(I)cc4F)n(C)c(=O)c(C)c32)c1 [Trametinib] (partner 0.02 µM)
In short: as §1

Cell Line | relative viability (ALW-II-49-7 + Lapatinib; first compound 0.08 µM) | relative viability (ALW-II-49-7 + Lapatinib; first compound 0.253 µM) | relative viability (ALW-II-49-7 + Lapatinib; first compound 0.8 µM) | relative viability (ALW-II-49-7 + Lapatinib; first compound 2.53 µM) | relative viability (ALW-II-49-7 + Lapatinib; first compound 8 µM) | relative viability (Dasatinib + Crizotinib; first compound 0.005 µM) | relative viability (Dasatinib + Crizotinib; first compound 0.01581 µM) | relative viability (Dasatinib + Crizotinib; first compound 0.05 µM) | relative viability (Dasatinib + Crizotinib; first compound 0.1581 µM) | relative viability (Dasatinib + Crizotinib; first compound 0.5 µM) | relative viability (Dasatinib + Trametinib; first compound 0.005 µM) | relative viability (Dasatinib + Trametinib; first compound 0.01581 µM) | relative viability (Dasatinib + Trametinib; first compound 0.05 µM) | relative viability (Dasatinib + Trametinib; first compound 0.1581 µM) | relative viability (Dasatinib + Trametinib; first compound 0.5 µM) | relative viability (XMD13-2 + Trametinib; first compound 0.05 µM) | relative viability (XMD13-2 + Trametinib; first compound 0.1581 µM) | relative viability (XMD13-2 + Trametinib; first compound 0.5 µM) | relative viability (XMD13-2 + Trametinib; first compound 5 µM) | relative viability (XMD13-2 + Trametinib; first compound 1.581 µM)
PC-3 [JPC-3] | 0.387 | 0.461 | 0.485 | 0.471 | 0.419 | 0.996 | 0.986 | 1.11 | 0.955 | 0.63 | 0.771 | 0.736 | 0.79 | 0.704 | 0.528 | 0.681 | 0.721 | 0.737 | 0.778 | 
PC-14 | 0.286 | 0.303 | 0.308 | 0.331 | 0.292 | 0.94 | 0.975 | 0.855 | 0.448 | 0.113 | 0.882 | 0.642 | 0.743 | 0.418 | 0.0498 | 0.892 | 0.713 | 0.788 | 0.983 | 0.723
RERF-LC-KJ | 0.867 | 0.948 | 0.867 | 0.941 | 0.859 | 0.839 | 0.977 | 0.832 | 0.75 | 0.764 | 0.855 | 0.784 | 0.765 | 0.668 | 0.658 | 0.984 | 0.83 | 0.889 | 0.782 | 0.8
SK-LU-1 | 0.738 | 0.984 | 0.774 |  | 0.607 | 0.558 | 0.417 | 0.35 | 0.251 | 0.251 | 0.349 | 0.306 | 0.291 | 0.247 | 0.252 | 0.513 | 0.474 | 0.573 | 0.511 | 0.56
SK-MES-1 | 0.481 | 0.458 | 0.477 | 0.487 | 0.474 | 0.968 | 0.937 | 0.93 | 0.372 | 0.212 | 0.566 | 0.475 | 0.361 | 0.217 | 0.157 | 0.576 | 0.532 | 0.508 | 0.58 | 0.508
SW 1573 | 1.14 | 1.21 | 1.1 | 1.2 | 1.15 | 0.826 | 0.689 | 0.624 | 0.429 | 0.356 | 0.531 |  | 0.475 | 0.33 | 0.433 | 0.585 | 0.53 | 0.674 | 0.536 | 0.533
